Patent US20130108702A1, “COPPER/SILICA NANOPARTICLES, METHODS OF MAKING, AND METHODS OF USE” (priority 2011, published 2013)

Assays:
E. coli = format: cell-based, Escherichia coli (ATCC 35218); details: ppm of silver, organism not given
Method: (§1) Antibacterial properties of C—S CuSiNP and AgSiNG materials were evaluated against a gram positive Bacillus subtilis (B. subtilis, ATCC 9372) and a gram negative Escherichia coli (E. coli, ATCC 35218) organism. For all antibacterial assays, bacterial concentration of 10^5 cells/mL was considered. Copper sulfate with same metallic copper concentration was used as positive controls and silica nanoparticle (without Cu loading) was used as negative control.
(§2) Two sets of different concentrations of C—S CuSiNP were made in LB broth (0.49, 1.2, 2.4, 4.9, 7.2 and 9.8 ppm copper concentration) to a final volume of 10 mL. 250 μL (10^5 cells/mL) of E. coli and B. subtilis were added to set 1 and 2 respectively. Silica nanoparticle was used as negative control and copper sulfate with equivalent amount of copper was used as positive control. […]
(§3) The growth inhibitory effects of C—S CuSiNP and AgSiNG against E. coli and B. subtilis were studied in liquid media (FIG. 2.3 and FIG. 2.4). Bacterial growth with different concentrations of C—S CuSiNP and AgSiNG (0.49 to 9.8 μg mL^−1) was monitored after 24 hours of incubation at 37° C. by measuring the optical density at 600 nm using Teysche800 spectrophotometer. Since the turbidity of silica based material can interfere with the optical density reading, the background measurement was subtracted to calculate the final reading.

B. subtilis = format: cell-based, Bacillus subtilis (ATCC 9372); details: ppm of silver, organism not given
Method: as §1, §2, §3

Structure (SMILES): O=[N+]([O-])[O-].[Ag+] [silver nitrate]
- silver concentration at which growth inhibition can be seen (E. coli): 2.4 ppm
- silver concentration at which growth inhibition can be seen (B. subtilis): 2.4 ppm
